Results as given in article PMC11945486, “TAS1R2/TAS1R3 Single-Nucleotide Polymorphisms Affect Sweet Taste Receptor Activation by Sweeteners: The SWEET Project” (Nutrients, 2025).
Where two headings read alike, the source gives them in different places. No end group written: not given here.

T1: human TAS1R2-WT/TAS1R3-P780A (Homo sapiens, UniProt Q7RTX0+Q8TE23, P780A)
T1 construct: expressed in transfected cells; host or cells: HEK293T stably expressing Gα16gust44
T1 sequence (Q8TE23 20-839): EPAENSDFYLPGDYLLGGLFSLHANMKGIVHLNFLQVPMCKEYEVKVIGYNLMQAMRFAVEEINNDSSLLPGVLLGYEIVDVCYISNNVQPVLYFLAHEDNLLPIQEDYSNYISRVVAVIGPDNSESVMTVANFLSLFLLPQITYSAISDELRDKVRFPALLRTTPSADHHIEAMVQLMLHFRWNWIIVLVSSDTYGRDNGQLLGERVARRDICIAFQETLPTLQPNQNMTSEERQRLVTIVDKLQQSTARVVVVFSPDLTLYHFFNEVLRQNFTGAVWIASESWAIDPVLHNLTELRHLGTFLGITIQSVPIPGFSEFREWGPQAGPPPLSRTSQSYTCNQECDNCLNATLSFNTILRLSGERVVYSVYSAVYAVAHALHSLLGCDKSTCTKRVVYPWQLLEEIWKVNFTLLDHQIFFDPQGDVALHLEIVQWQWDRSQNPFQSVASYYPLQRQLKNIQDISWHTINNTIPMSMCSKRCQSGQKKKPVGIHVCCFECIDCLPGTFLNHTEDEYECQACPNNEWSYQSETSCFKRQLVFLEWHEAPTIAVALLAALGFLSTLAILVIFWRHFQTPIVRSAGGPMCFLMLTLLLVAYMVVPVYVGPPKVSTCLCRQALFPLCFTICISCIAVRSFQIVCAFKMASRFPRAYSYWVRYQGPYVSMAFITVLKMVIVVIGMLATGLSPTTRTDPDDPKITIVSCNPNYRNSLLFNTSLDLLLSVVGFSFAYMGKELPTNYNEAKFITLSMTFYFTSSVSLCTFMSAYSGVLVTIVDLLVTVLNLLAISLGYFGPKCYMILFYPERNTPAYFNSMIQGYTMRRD
T1 sequence (Q7RTX0 21-852 P780A): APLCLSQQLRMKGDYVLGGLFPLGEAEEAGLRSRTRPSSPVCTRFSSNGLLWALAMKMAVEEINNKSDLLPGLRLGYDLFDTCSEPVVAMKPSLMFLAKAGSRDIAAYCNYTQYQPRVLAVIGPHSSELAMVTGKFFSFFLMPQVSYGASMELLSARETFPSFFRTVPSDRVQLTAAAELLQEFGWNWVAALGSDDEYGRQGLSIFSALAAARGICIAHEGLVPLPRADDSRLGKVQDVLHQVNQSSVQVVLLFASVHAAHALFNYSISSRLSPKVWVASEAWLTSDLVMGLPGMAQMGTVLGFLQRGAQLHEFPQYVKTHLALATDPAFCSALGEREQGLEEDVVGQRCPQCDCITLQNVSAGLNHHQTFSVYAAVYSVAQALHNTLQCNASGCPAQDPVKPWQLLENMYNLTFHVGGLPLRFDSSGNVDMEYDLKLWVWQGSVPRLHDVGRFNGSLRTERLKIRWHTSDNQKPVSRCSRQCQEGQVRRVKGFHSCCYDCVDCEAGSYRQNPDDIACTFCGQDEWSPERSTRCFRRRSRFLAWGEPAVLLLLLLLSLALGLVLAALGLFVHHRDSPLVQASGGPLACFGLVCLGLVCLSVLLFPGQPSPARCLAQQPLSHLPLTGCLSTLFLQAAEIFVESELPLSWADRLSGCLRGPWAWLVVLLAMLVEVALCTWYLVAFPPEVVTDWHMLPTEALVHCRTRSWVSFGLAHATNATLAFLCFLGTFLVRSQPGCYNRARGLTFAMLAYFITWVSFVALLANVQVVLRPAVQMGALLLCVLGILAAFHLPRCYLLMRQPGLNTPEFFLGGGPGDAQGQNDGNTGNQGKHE

B1: thaumatin (protein)
chain: ATFEIVNRCSYTVWAAASKGDAALDAGGRQLNSGESWTINVEPGTKGGKIWARTDCYFDDSGSGICKTGDCGGLLRCKRFGRPPTTLAEFSLNQYGKDYIDISNIKGFNVPMDFSPTTRGCRGVRCAADIVGQCPAKLKAPGGGCNDACTVFQTSEYCCTTGKCGPTEYSRFFKRLCPDAFSYVLDKPTTVTCPGSSNYRVTFCPTA
modifications: Eight disulfides
notes: sweet-tasting plant protein, E957

Target: T1, human TAS1R2-WT/TAS1R3-P780A
Test: Calcium mobilisation assay, TAS1R2-WT with TAS1R3 variant P780A
Type: cell-based
Conditions: for Max ΔF/F0: maximal signal amplitude
Source text: The coding sequences for TAS1R2 and TAS1R3 were commercially synthesised, and the human codon was optimised for expression in human cells. The coding sequences of human TAS1R2 and TAS1R3 were subcloned and inserted into the mammalian expression vectors pcDNA6/myc-HisA and pcDNA4/myc-HisA (Invitrogen; Thermo Fisher Scientific; Illkirch, France) between the EcoRI and NotI restriction sites, generating the plasmids pcDNA6-TAS1R2 and pcDNA4-TAS1R3, respectively. To increase protein expression in mammalian cells, an upstream start codon was used, which was a sequence called MAX, corresponding to the QBI SP163 element also described in pcDNA4-HisMax (Invitrogen; Thermo Fisher Scientific; Illkirch, France). To measure the expression level of the receptor by immunohistochemistry, we used the FLAG sequence ([…]) in the C-terminal position, which encodes the FLAG tag epitope. SNP variants of TAS1R2 and TAS1R3 were constructed based on […], respectively, using site-directed mutagenesis (Genewiz; Leipzig, Germany).
The HEK293T cells were kindly provided by Jay P. Slack (Givaudan Flavors Corporation; Cincinnati, OH, USA). HEK293T cells stably transfected with Gα16gust44 [43, 67] were seeded in poly-D-lysine-coated clear-bottom black 96-well plates (0.35 × 10^5 cells/well) in high-glucose DMEM supplemented with 2 mM GlutaMAX, 10% dialysed foetal bovine serum with penicillin/streptomycin and G418 (400 μg/mL) at 37 °C and 6.3% CO2 in a humidified atmosphere as previously reported. […] As a negative control, HEK293T cells were mock-transfected with the empty expression vector. After a further 24 h of incubation, the HEK293T cells were washed with C1 buffer (130 mM NaCl, 5 mM KCl, 10 mM HEPES pH 7.4 and 2 mM CaCl2). The 96-well plates containing the cells were then stimulated with sweet-tasting compounds. […] Different concentration ranges were tested depending on the sweet compound injected. The Ca^2+ changes were expressed as fractional changes in fluorescent light intensity: ΔF/F = (F − F0)/F0, where F was the fluorescent light intensity at each point, and F0 was the value of emitted fluorescent light prior to stimulus application. To calculate dose–response relationships, the changes in fluorescence upon stimulus application were averaged, mock-subtracted and baseline-corrected. The dose–response data obtained were adjusted using a 4-parameter logistic equation. The half-maximal effective concentrations (EC50 values) and maximal signal amplitudes were calculated using SigmaPlot software (version 15.0) (Systat Software; San Jose, CA, USA).
For in vitro calcium mobilisation assay performed on hTAS1R2-SNPs, hTAS1R3-SNPs and mTAS1R3-I60T, 6 to 7 concentrations were tested for each sweet compound, plus buffer alone. All concentration–receptor combinations were measured in duplicate, and each experiment was repeated at least 4 times (8 wells/concentration). Results were expressed for each concentration as ΔF/F mean ± SEM and represented as dose–response curves.

| Molecule | R1 = Variant EC50/WT EC50 | Max ΔF/F0 | EC50 (read-out: EC50) [µM] | EC50 (brazzein) [µg/mL] |
| --- | --- | --- | --- | --- |
| OC[C@H]1O[C@H](O[C@]2(CCl)O[C@H](CCl)[C@@H](O)[C@@H]2O)[C@H](O)[C@@H](O)[C@H]1Cl [Sucralose] | 1.4 | 0.76 ± 0.03 | 149 ± 12 |  |
| O=S(=O)(O)NC1CCCCC1 [Cyclamate, cyclamate] |  |  | 1170 ± 62 |  |
| C=C(C)[C@@H]1CC=C(/C=N/O)CC1 [Perillartine, perillartine] | 0.9 | 1.44 ± 0.20 | 12.7 ± 5 |  |
| C=C1C[C@@]23CC[C@H]4[C@@](C)(CCC[C@@]4(C)C(=O)O[C@@H]4O[C@H](CO)[C@@H](O)[C@H](O[C@@H]5O[C@H](CO)[C@@H](O)[C@H](O)[C@H]5O)[C@H]4O[C@@H]4O[C@H](CO)[C@@H](O)[C@H](O)[C@H]4O)[C@@H]2CC[C@]1(O[C@@H]1O[C@H](CO)[C@@H](O)[C@H](O[C@@H]2O[C@H](CO)[C@@H](O)[C@H](O)[C@H]2O)[C@H]1O[C@@H]1O[C@H](CO)[C@@H](O)[C@H](O)[C@H]1O)C3 [Rebaudioside M, rebaudioside M] | 0.6 | 1.21 ± 0.05 | 23 ± 2.6 |  |
| COc1ccc(CCC(=O)c2c(O)cc(O[C@@H]3O[C@H](CO)[C@@H](O)[C@H](O)[C@H]3O[C@@H]3O[C@@H](C)[C@H](O)[C@@H](O)[C@H]3O)cc2O)cc1O [NHDC, neohesperidin dihydrochalcone] | 0.9 | 1.50 ± 0.01 | 46.4 ± 12.9 |  |
| thaumatin | 0.8 | 0.86 ± 0.06 |  |  |
| CC1=CC(=O)NS(=O)(=O)O1 [Acesulfame K, acesulfame K] | 0.7 | 0.30 ± 0.01 | 421 ± 31 |  |
| brazzein (QDKCKKVYENYPVSKCQLANQCNYDCKLDKHARSGECFYDEKRNLQCICDYCEY; ends and bridges not checked; cysteine pairing not given here; UniProt P56552 1-54, looked up) [sweet-tasting protein obtained by recombinant production using the yeast Pichia pastoris] | 0.7 | 1.06 ± 0.06 |  | 80.7 ± 14.8 |
| C[C@H](CC[C@@H](O[C@@H]1O[C@H](CO[C@@H]2O[C@H](CO)[C@@H](O)[C@H](O)[C@H]2O)[C@@H](O)[C@H](O)[C@H]1O[C@@H]1O[C@H](CO)[C@@H](O)[C@H](O)[C@H]1O)C(C)(C)O)[C@H]1CC[C@@]2(C)[C@@H]3CC=C4[C@@H](CC[C@H](O[C@@H]5O[C@H](CO[C@@H]6O[C@H](CO)[C@@H](O)[C@H](O)[C@H]6O)[C@@H](O)[C@H](O)[C@H]5O)C4(C)C)[C@]3(C)[C@H](O)C[C@]12C [Mogroside V, mogroside V] | 0.7 | 1.13 ± 0.04 | 22.5 ± 2.2 |  |
| COC(=O)[C@H](Cc1ccccc1)NC(=O)[C@H](CC(=O)O)NCCC(C)(C)C [Neotame] | 0.8 | 0.63 ± 0.02 | 1.03 ± 0.08 |  |
| B1 |  |  | 7.8 ± 1.3 |  |
